This note sets out measurements from ChEMBL document CHEMBL1146750, “Design, synthesis and evaluation of potential inhibitors of HIV gp120-CD4 interactions” (Bioorg Med Chem Lett, 2004).

For orientation: IC50 means the concentration at which inhibition is half-maximal. Low readings indicate greater potency, high ones weaker potency. For orientation: EC50 means the midpoint of the concentration-response curve. The low end stands for higher potency in that assay, the high end for lower potency in that assay.

The test system of series [1] is Human immunodeficiency virus 1. The series is described as follows: Inhibition of HIV-cell fusion was determined at 10 uM by using cellular FIGS assay; Inactive. The class given is functional, organism-based.
A short description of series [2]: Toxicity against HIV cells. To be noted: human immunodeficiency virus 1. The class given is cell-based.
Series [3] relates to C8166. The series is described as follows: Inhibition of HIV-1 IIIB infections in C8166 cell lines was determined; 4-8 uM. The class given is functional, cell-based. To be noted: Homo sapiens.
Series [4] relates to Human immunodeficiency virus 1. The series is described as follows: Inhibition of HIV-cell fusion was determined by using cellular FIGS assay. The class given is functional, organism-based.
Series [5] is described as follows: Therapeutic index in C8166 cell lines was determined. To be noted: human, C8166 cells; read-out: TC50 (the source's name). The class given is cell-based.
In series [6] the test system is Human immunodeficiency virus 1. Nature of the series: Inhibition of HIV-specific CD4-gp120 interaction was determined using recombinant protein. The class given is functional.
Series [7] deals with C8166. The series is described as follows: Inhibition of HIV-1 IIIB infections in C8166 cell lines was determined; Range is 4-8 uM. The class given is functional, cell-based. Conditions: Homo sapiens; call rule not given here.

For `N=C(N)c1cccc(Oc2ccccc2)c1`, the IC50 result in series [1] is recorded as “Not Active”. Further, the Activity in series [2] came out at 100 µM.

In the case of `N=C(N)c1cccc(OCc2ccc(OCc3ccccc3)cc2)c1`, in series [1], the 50% inhibitory concentration (IC50) result is “Not Active”. In addition, the Activity in series [2] amounted to 100 µM.

As to `N=C(N)Nc1cccc(OCc2ccc(Cl)cc2)c1.O=C(O)C(F)(F)F`, the IC50 entry in series [1] is “Not Active”. This compound also had an Activity in series [2] of 100 µM.

Regarding `Cl.N=C(N)Nc1cccc(OCc2ccccc2)c1`, the concentration giving a half-maximal response (EC50) in the series with C8166 [3] stood at 8 µM. The same compound showed an IC50 in series [4] of 131 µM. Besides, the CC50 in series [5] worked out at 40 µM. Besides, in series [6], the Inhibition was found to be 5 mM.

Consider `Cl.N=C(N)Nc1cccc(Oc2ccccc2)c1`, for which the EC50 in the series with C8166 [7] is 8 µM. Further, the IC50 in series [4] was found to be 167 µM. Further, the CC50 in series [5] came out at 20 µM. Besides, the Inhibition in series [6] was determined as 5 mM.

For the compound `Cc1ccc(COc2cccc(C(=N)N)c2)cc1`, the IC50 entry in series [1] is reported as “Not Active”. In series [2], this compound gave an Activity of 100 µM.

Take `N=C(N)Nc1cccc(OCc2ccc(Br)cc2)c1.O=C(O)C(F)(F)F`: the IC50 entry in series [1] is on record as “Not Active”. This compound also gave an Activity in series [2] of 100 µM.

Regarding `N=C(N)c1cccc(OCc2ccc(Cl)cc2)c1`, the IC50 result in series [1] is “Not Active”. The Activity in series [2] is 100 µM.

Turning to `N=C(N)c1cccc(OCc2ccccc2)c1`, in series [1], the IC50 result was “Not Active”. In series [2], the Activity came out at 100 µM.

On to `N=C(N)c1cccc(OCc2cccc([N+](=O)[O-])c2)c1`, for which the IC50 result in series [1] is “Not Active”. In series [2], the Activity turned out to be 100 µM.

Regarding `N=C(N)c1cccc(OCc2ccc(Br)cc2)c1`, in series [1], the IC50 entry is “Not Active”. The Activity in series [2] was 100 µM.
